Reference: patent US8337444B2, “Measurement of cardiac output and blood volume by non-invasive detection of indicator dilution for hemodialysis” (Alfred E. Mann Institute for Biomedical Engineering at the …, priority 2001, dated 2012)

Experiments:
[1] = Blood ICG concentration after high dose intravenous injection (calibration sequence); type: in vivo, New Zealand White rabbits; conditions: rabbit, 1 mg ICG intravenously, metabolized by the liver
Source text: A. A sample method and system for measuring cardiac output and blood volume. Experiments have been performed in New Zealand White rabbits (2.8-3.5 Kg) anesthetized with halothane and artificially ventilated with an oxygen-enriched gas mixture (Fio2˜0.4) to achieve a Sao2 above 99% and an end-tidal CO2 between 28 and 32 mm Hg (FIG. 4). The left femoral artery was cannulated for measurement of the arterial blood pressure throughout the procedure. A small catheter was positioned in the left brachial vein to inject the indicator, ICG. Body temperature was maintained with a heat lamp.
Calibration of the transcutaneous fluorescence intensity measured at the level of the animals' ear as a function of ICG concentration in blood was performed as follows. […]
As the liver metabolizes ICG, the blood ICG concentration decreases back to 0 in about 20 minutes. […] The fluorescence intensity of the blood in the cuvette was converted to a measurement of concentration using the known standard curve of fluorescence intensity versus ICG concentration established for the cuvette. ICG fluorescence was measured at the level of the ear at the exact time of the blood sample withdrawal. […]
For the range of concentrations used in these studies, ICG concentration and transcutaneous fluorescence were linearly related. […]

[2] = cited from earlier work
blood proteins = conditions: protein-bound ICG not cleared by dialysis; cited from earlier work

time for blood ICG concentration to decrease back to 0 [1]: about 20 minutes
Compound: CC1(C)C(/C=C/C=C/C=C/C=C2\N(CCCCS(=O)(=O)O)c3ccc4ccccc4c3C2(C)C)=[N+](CCCCS(=O)(=O)[O-])c2ccc3ccccc3c21 [ICG, indocyanine green]
stability in aqueous solution [2]: breaks down quickly
fraction of ICG injected in the bloodstream that binds to blood proteins (blood proteins): more than 95%
